Where a name gives a salt, the structure may show the parent alone.

One test deals with vesico-anal reflex. Nature of the test: acetic acid-induced vesico-anal reflex. The test is classed as in vivo, rat. The note with it: for duration of the increase in vesico-anal reflex activity when administered alone / vesico-anal reflex activity when administered alone: atropine 30 μg/kg-1 mg/kg, oxybutynin 1-3 mg/kg. The text has this: The model of visceral nociception that was used in the testing of the compounds according to the method of this invention is the acetic acid-induced vesico-anal reflex. This model utilizes infusion of a dilute acetic acid solution into the urinary bladder as a nociceptive stimulus and records increases in electromyographic (EMG) activity from the anal sphincter as the primary measured response. Anal sphincter EMG activity is composed of 2 components, 1) a small, long duration action potential (ca. 50 msec) that is sensitive to muscarinic antagonists and 2) a larger, short duration action potential (ca. 2 msec) that is sensitive to neuromuscular blocking agents (i.e. mediated by nicotinic receptors). […] It is the striated anal sphincter muscle activity that 1) is associated with bladder activity, 2) is increased by acetic acid infusion into the bladder, and 3) represents the vesico-anal reflex.
In the acetic acid-induced vesico-anal reflex model, bladders of urethane-anesthetized rats were cannulated through the dome for continuous-infusion cystometrogram recordings. EMG electrodes were inserted into the anus and the peri-urethral musculature for recording anal and urethral sphincteric activity, respectively.
Female Sprague-Dawley rats (200-300 g) were anesthetized with 1.4 g/kg urethane (0.7 g administered i.p. and 0.7 g administered s.c.), which was supplemented with 1% isoflurane during surgery. The urinary bladder was exposed through an abdominal incision and cannulated with PE60 tubing attached to a 22 gauge needle that was inserted through the dome of the bladder. A purse-string suture (5-0 silk) through the bladder held the needle in place. The cannula was connected to an infusion pump (Harvard Apparatus, Natick Mass.) and a pressure transducer (Statham Gould, Cleveland, Ohio) through a 3 way stopcock to allow bladder filling and pressure measurement, respectively. The abdominal incision was covered with plastic wrap. A small incision was made in the perineum to allow placement of EMG electrodes into the periurethral musculature. EMG electrodes were also placed into the muscular tissue of the anus. EMG electrodes were connected to preamplifiers (Grass P511, Quincey, Mass.) with low and high pass filters set at 10 and 3000 HZ. […] A catheter inserted into the carotid artery was connected to a pressure transducer (Statham Gould, Cleveland, Ohio) to record arterial pressure, which was used to trigger a heart rate meter (Biotach, Gould, Cleveland, Ohio). A catheter was inserted into the trachea to allow for artificial respiration and monitoring of expired CO2 (Sensor Medics. Anaheim, Calif.).
After establishing control levels of anal and urethral activity, compounds were administered intravenously. Oxotremorine sesquifumarate (Sigma Chemicals, St. Louis, Mo.), atropine sulfate (RBI, Natick, Mo.), (-) scopolamine methyl bromide (RBI), physostigmine free base (Sigma Chemicals), neostigmine bromide (Sigma) and the test compounds were all dissolved in physiological saline.

In another test the target is muscarinic receptors. Put plainly: inhibition of binding of 3H-oxotremorine-M to muscarinic receptors. To be noted: 3 nM 3H-oxotremorine-M, rat cerebral cortical membranes, pH 7.4, 15 min, 25° C.; read-out: Inhibition of ^3 H-Oxo. The procedure:
The affinity of the compounds for the muscarinic receptors was determined using the non-selective agonist ligand, ^3 H-oxotremorine-M. Birdsdall N. J. M., Hulme E. C., and Burgen A. S. V. "The Character of Muscarinic Receptors in Different Regions of the Rat Brain", 207 Proc. Roy. Soc. 1 (London, Series B, 1980). Each compound was tested to determine the affinity of the compound for the muscarinic receptors using the following procedure.
For in vitro binding, male Sprague-Dawley (Harlan Sprague-Dawley, Indianapolis, Ind.) rats weighing from about 100 to about 150 grams each were sacrificed by decapitation. The brains were quickly removed and the cerebral cortex were dissected from the brain. The cerebral cortex tissue was homogenized in 10 volumes of 0.32M sucrose and […] at about 1000×g. The supernatant was centrifuged at about 12,000×g for about 10 minutes and the resulting pellet was resuspended in 20 mM tris-Cl, pH 7.4. The resuspended pellet was centrifuged again for about 10 minutes at about 50,000×g. The resulting homogenate was preincubated for about 10 minutes at about 25° C. and centrifuged again for about 10 minutes at about 50,000×g. The pellet was resuspended at 1 gram of pellet per 3 ml of buffer and frozen at about -80° C. until used.
The inhibition of binding of ^3 H-oxotremorine-M to muscarinic receptors was determined by mixing the compound of the Example, 3 nM ^3 H-oxotremorine-M (about 87 Ci/mmoles, New England Nuclear, Boston Mass.), and cerebral cortical membranes equivalent to about 10 mg wet weight, which is about 100 μg of cortical membrane protein, in about 1 ml total volume of […] tris-Cl buffer, pH 7.4, containing 1 mM MnCl2. The aforementioned homogenates mixture was incubated for about 15 minutes at about 25° C. and then the homogenates were filtered through glass filters (Whatman, GF/C) with vacuum. The filters were washed 3 times with about 2 ml of cold tris-Cl buffer, and placed in scintillation vials containing about 10 ml of scintillation fluid (Ready Protein+, Beckman, Fullerton, Calif.). Radioactivity trapped on the filters was determined by liquid scintillation spectrometry. Nonspecific binding was determined using 1 μM atropine. The concentration of compound required to inhibit specific binding 50% (IC50) was determined using standardized computer assisted calculations (DeLean, A. et al. Am. J. Physiol., 235, (1978)).

Setting [1] is: 0.5% acetic acid infused into the bladder or urethra.

With `CCN(CC)CC#CCOC(=O)C(O)(c1ccccc1)C1CCCCC1` (centres unmarked) [oxybutynin], in the test on vesico-anal reflex, the “duration of the increase in vesico-anal reflex activity when administered alone” value turned out to be 15 min and the “vesico-anal reflex activity when administered alone” value is “robust, but transient (15 min.), increases in vesico-anal reflex activity”.

For the molecule `CNC(=O)Oc1ccc2c(c1)[C@]1(C)CCN(C)[C@@H]1N2C` [physostigmine, physostigmine free base], in the test on vesico-anal reflex (centrally active (physostigmine) vs peripherally-restricted (neostigmine)), the “suppression of the VA reflex by cholinesterase inhibitor” value is given as “suppressed the VA reflex in a dose-dependent, atropine-sensitive manner”.

Regarding `C[N+]1(C)[C@@H]2C[C@@H](OC(=O)[C@H](CO)c3ccccc3)C[C@H]1[C@@H]1O[C@@H]12` [Scopolamine methyl bromide, (-) scopolamine methyl bromide], in the test with vesico-anal reflex (scopolamine methyl bromide 1-30 ug/kg, peripherally-restricted), the “blocking of the cholinergic agonist-mediated inhibition of the vesico-anal reflex” value is “ineffective”.

Regarding `CN1C2CCC1CC(OC(=O)C(CO)c1ccccc1)C2` (centres unmarked) [atropine, atropine sulfate], in the test on vesico-anal reflex, the “duration of the increase in vesico-anal reflex activity when administered alone” value was 15 min and the “vesico-anal reflex activity when administered alone” value was “robust, but transient (15 min.), increases in vesico-anal reflex activity”. In addition, the “reversal of the cholinergic agonist-induced inhibition of vesico-anal reflex activity” value with vesico-anal reflex (atropine 0.3-1 mg/kg) was “reversed”.

Consider `CC(=O)O` [acetic acid], for which, in the test on vesico-anal reflex (setting [1]), the anal sphincter activity result was “pronounced increases in anal sphincter activity”; the “bladder contractile activity and urethral sphincter activity” value is “modest increases in bladder contractile activity and urethral sphincter activity”. Also, the “duration of acetic acid-induced increase in vesico-anal reflex activity” value in the test with vesico-anal reflex (in 95% of the animals) is given as “over 2 hours”.

Turning to `O=C1CCCN1CC#CCN1CCCC1` [Oxotremorine, Oxotremorine sesquifumarate], the “inhibition of vesico-anal reflex activity (in words)” value in the test with vesico-anal reflex (oxotremorine 1-30 μg/kg iv, test compounds 0.01-1.0 mg/kg iv) is on record as “dose-dependent inhibition of vesico-anal reflex activity”. The “inhibition of vesico-anal reflex activity (to % of control)” value in the test with vesico-anal reflex (oxotremorine 1-30 μg/kg iv, urethane-anesthetized rats) was 10 % of control.

As to `CCOc1nsnc1C1CN2CCC1CC2` (centres unmarked) [Compound 9, 3-(3-Ethoxy-1,2,5-thiadiazol-4-yl)-1-azabicyclo[2.2.2]octane fumarate], the IC50 at muscarinic receptors came out at 2.1 nM.

In the case of `CCCCSc1nsnc1[C@@H]1CN2CCC[C@@H]1C2` [Compound 111, (5S,6S)-6-(3-butylthio-1,2,5-thiadiazol-4-yl)-1-azabicyclo[3.2.1]octane (+) L-tartrate], the IC50 at muscarinic receptors was determined as 1 nM.

As for `Cc1nnc(SCCCCSc2nsnc2C2CN3CCC2CC3)s1` (centres unmarked) [Compound 107, oxalate], the IC50 at muscarinic receptors turned out to be 1 nM.

On to `N#CCSc1nsnc1C1CN2CCC1CC2` (centres unmarked) [Compound 103, 3-(3-Cyanomethylthio-1,2,5-thiadiazol-4-yl)-1-azabicyclo[2.2.2]octane oxalate], for which, on muscarinic receptors, the IC50 came out at 2.7 nM.

With `CCCSc1nsnc1[C@@H]1CN2CCC[C@@H]1C2` [Compound 114, (5S,6S)-6-(3-propylthio-1,2,5-thiadiazol-4-yl)-1-azabicyclo[3.2.1]octane (-) D-tartrate], at muscarinic receptors, the IC50 amounted to 0.45 nM.

Values taken from US5710151A, “Method of treating urinary bladder dysfunctions” (priority 1996, dated 1998).
